Patent US8883415B2, “Aza-benzazolium containing cyanine dyes” (Life Technologies Corporation, priority 1999, dated 2014)
Entries after “also recorded” stand apart in the source; their conditions may differ.

Key:
[1] = system: double-stranded bacteriophage λ cl857 DNA that is digested with HindIII restriction endonuclease; assay: Detecting nucleic acids in gels; assay type: binding; conditions: POLAROID 667 B&W film; FOTODYNE 254 nm epi.; 1 micromolar dye
double-stranded DNA [2] = assay: Detecting double-stranded DNA in solution (fluorescence microplate reader); assay type: binding
Procedure: Samples containing 0.1 ng/mL to 1 microgram/mL double-stranded DNA are prepared in 10 mM Tris-HCl, 1 mM EDTA, pH 7.5. The selected dye of the invention is dissolved in DMSO at a concentration of 1-10 mM and then diluted into the same buffer at a concentration sufficient to achieve final optical densities of 0.1 and 0.01 at 500 nm, 530 nm, 540 nm or 560 nm. Equal volumes (100 microliters each) of DNA sample solution and dye solution at each concentration are combined and mixed gently at room temperature in a microplate well.
Samples are allowed to equilibrate for 5-60 minutes, protected from light, and the fluorescence of the sample is measured using a fluorescence microplate reader. DNA concentration is determined by comparison of the sample fluorescence with a standard curve obtained with that dye for each dye concentration. The sensitivity limit of several dyes in this assay is shown (Table 5).

[3] = system: double-stranded bacteriophage λ cl857 DNA that is digested with HindIII restriction endonuclease; assay: Detecting nucleic acids in gels; assay type: binding; conditions: 1 micromolar dye
Procedure: DNA samples are loaded onto agarose or polyacrylamide gels and electrophoresed using standard conditions. Selected dyes of the invention are dissolved in DMSO at a concentration of 1-10 micromolar and diluted into 0.5×TBE buffer to a final concentration of 1 micromolar dye. Gels are incubated for 20-90 minutes in this staining solution, with gentle agitation, at room temperature, protected from light. Nucleic acids are visualized by transillumination at 300 nm, followed by direct visual detection or photography using Polaroid black-and-white print film. Nucleic acids are alternatively visualized by scanning using a FMBIO II laser scanner with a 532 nm frequency-doubled YAG laser source or a charge-coupled device camera system coupled with an ultraviolet (300 nm) light source, or a visible light transilluminator.

double-stranded DNA [4] = assay: Detecting double-stranded DNA in the presence of single-stranded DNA; assay type: binding; conditions: nucleic acids 2 micrograms/mL; dye 1 micromolar; excitation 540 nm, emission 570 nm
Procedure: Samples containing nucleic acids at a concentration of 2 micrograms/mL are combined with Compound 16, Compound 22, or Compound 24 at a final dye concentration of 1 micromolar in 10 mM Tris-HCl, 1 mM EDTA, pH 7.5, and mixed gently. The resulting mixture is allowed to incubate for 5-60 minutes at room temperature, protected from light, and sample fluorescence is measured using a fluorescence microplate reader, with excitation at 540 nm and emission at 570 nm. […] If, however, the dye concentration is reduced relative to the concentration of single-stranded nucleic acids, the fluorescence upon binding those nucleic acids increases relative to that of the double-stranded DNA-dye complex. Thus the assay is always performed in sufficient dye excess.

[5] = system: Escherichia coli ribosomal RNA; assay: Detecting RNA in solution; assay type: binding
Procedure: (§1) Selected dyes of the invention are dissolved in DMSO at 1-10 micromolar concentration, then diluted into 10 mM Tris-HCl, 1 mM EDTA, pH 7.5 to a final optical density of 0.1 or 0.01 at 530 nm or 540 nm. These dye solutions are combined with an equal volume of Escherichia coli ribosomal RNA at concentrations ranging from 0.25 ng/mL to 1 microgram/mL in microplate wells. The resulting mixtures are mixed gently and incubated for 5-60 minutes at room temperature, protected from light, and the sample fluorescence is measured.

[6] = system: 18-base oligodeoxynucleotide sequencing primer; assay: Detecting oligonucleotides in solution; assay type: binding
Procedure: as §1, with “The resulting” for “These”, “an 18-base oligodeoxynucleotide sequencing primer solution” for “Escherichia coli ribosomal RNA”, “of 0.1” for “ranging from 0.25”, “the same buffer.” for “microplate wells.”, “mixture is” for “mixtures are”, “measured in a fluorescence microplate reader.” for “measured.”

bovine serum albumin = bovine serum albumin (Bos taurus, UniProt P02769); assay: Detecting proteins in solution; assay type: binding; conditions: 2 micromolar dye, 0.05% SDS; either 10 minutes at 90° C. or 5-60 minutes at room temperature
Procedure: Compound 51 and Compound 44 are dissolved in DMSO at 1-10 mM and then diluted into 10 mM Tris-HCl, 1 mM EDTA, pH 7.5, containing 0.05% sodium dodecyl sulfate, to a final concentration of 2 micromolar. This dye solution is combined with samples containing bovine serum albumin at 100 ng/mL to 10 micrograms/mL. Samples are optionally incubated for 10 minutes at 90° C. and then cooled to room temperature, or are incubated for 5-60 minutes at room temperature. Fluorescence is measured using a fluorescence microplate reader with excitation at 540 nm and emission at 590 nm for Compound 44 and with excitation at 600 nm and emission at 670 nm for Compound 51. The fluorescence signal obtained from Compound 44 or 51 in buffer alone (control) is subtracted from the fluorescence recorded for the protein-containing samples in order to determine the intensity of the signal that is due to the presence of protein. Protein concentrations are then determined by comparison of the signal intensity thus obtained with the signals obtained using a dilution series of known concentration prepared using either the same protein or a protein standard, such as bovine serum albumin. The sensitivity limit for either dye under either condition is about 100 ng/mL bovine serum albumin (FIGS. 3 and 4).

DNA = assay: Excitation and emission wavelengths when associated with DNA; assay type: physicochemical
[7] = Excitation 530 nm/Emission 560 nm
[8] = BOEHRINGER MANNHEIM LUMIIMAGER CCD, 300 nm trans., 520 nm em.
[9] = BOEHRINGER MANNHEIM LUMIIMAGER CCD, 300 nm trans., 545 nm em
[10] = HITACHI FMBIO II laser scanner, 532 nm freq.-doubled YAG laser
[11] = POLAROID 667 B&W film, DARK READER visible light box
[12] = POLAROID 667 B&W film, FOTODYNE 300 nm trans.
[13] = Excitation 540 nm/Emission 570 nm

Sequence of bovine serum albumin (P02769 25-607): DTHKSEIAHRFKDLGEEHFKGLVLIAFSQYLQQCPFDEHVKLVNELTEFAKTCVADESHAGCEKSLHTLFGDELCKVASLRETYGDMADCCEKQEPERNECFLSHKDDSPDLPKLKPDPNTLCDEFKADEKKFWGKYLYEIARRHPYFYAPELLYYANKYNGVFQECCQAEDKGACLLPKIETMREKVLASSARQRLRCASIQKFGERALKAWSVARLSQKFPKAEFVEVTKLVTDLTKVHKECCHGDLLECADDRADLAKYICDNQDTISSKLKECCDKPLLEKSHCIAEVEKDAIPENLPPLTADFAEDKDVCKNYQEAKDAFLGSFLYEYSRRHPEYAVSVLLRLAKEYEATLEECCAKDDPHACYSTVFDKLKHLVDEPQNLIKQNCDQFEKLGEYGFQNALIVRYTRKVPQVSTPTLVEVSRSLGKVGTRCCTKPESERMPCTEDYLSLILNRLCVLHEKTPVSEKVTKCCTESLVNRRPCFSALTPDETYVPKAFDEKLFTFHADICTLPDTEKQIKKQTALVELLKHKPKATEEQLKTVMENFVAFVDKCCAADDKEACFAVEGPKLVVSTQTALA

SMILES | Sensitivity for detecting double-stranded DNA in agarose gels [1] [pg] | Sensitivity for detecting double-stranded DNA in agarose gels [3, 8] [pg] | Sensitivity for detecting double-stranded DNA in agarose gels [3, 9] [pg] | Sensitivity for detecting double-stranded DNA in agarose gels [3, 10] [pg] | Sensitivity for detecting double-stranded DNA in agarose gels [3, 11] [pg] | Sensitivity for detecting double-stranded DNA in agarose gels [3, 12] [pg] | Sensitivity Limit, High dye concentration (0.1 OD) (double-stranded DNA [2]; [13]) [ng/mL] | Sensitivity Limit, Low dye concentration (0.01 OD) (double-stranded DNA [2]; [13]) [ng/mL] | other results
CCCCC1=C/C(=C\c2nc3c(ccc[n+]3C)o2)c2ccccc2N1c1ccccc1.[I-] [Compound 15] | 60 | 210 | 100 | 100 | 480 | 240 |  |  | Sensitivity Limit, High dye concentration (0.1 OD) (double-stranded DNA [2]; [7]): 10 ng/mL; Sensitivity Limit, Low dye concentration (0.01 OD) (double-stranded DNA [2]; [7]): 0.5 ng/mL
CN1C(c2ccccc2)=C/C(=C\c2nc3c(ccc[n+]3C)o2)c2ccccc21.[I-] [Compound 16] | 30 | 210 | 50 | 25 | 240 | 120 | <10 | 1.0 | Preferential fluorescent staining of double-stranded DNA in the presence of single-stranded DNA and RNA (double-stranded DNA [4]): preferential fluorescent staining of double-stranded DNA; also recorded: detected preferentially
CCN1C(c2ccccc2)=C/C(=C\c2nc3c(ccc[n+]3C)o2)c2cc3c(cc21)OCO3.[I-] [Compound 18] | 60 | 210 | 100 | 50 |  | 120 |  |  | Sensitivity Limit, High dye concentration (0.1 OD) [5, 7]: 10 ng/mL; Sensitivity Limit, Low dye concentration (0.01 OD) [5, 7]: 1.2 ng/mL; Sensitivity Limit, High dye concentration (0.1 OD) [6, 7]: <10 ng/mL; Sensitivity Limit, Low dye concentration (0.01 OD) [6, 7]: >10 ng/mL; Sensitivity Limit, High dye concentration (0.1 OD) (double-stranded DNA [2]; [7]): <10 ng/mL; Sensitivity Limit, Low dye concentration (0.01 OD) (double-stranded DNA [2]; [7]): 0.2 to 0.5 ng/mL
COc1ccc2c(c1)/C(=C/c1nc3c(ccc[n+]3C)o1)C=C(c1ccccc1)N2C.[I-] [Compound 19] |  |  |  |  |  |  | <10 | 0.5 | Sensitivity Limit, High dye concentration (0.1 OD) [5, 13]: 20 ng/mL; Sensitivity Limit, Low dye concentration (0.01 OD) [5, 13]: 10 ng/mL; Sensitivity Limit, High dye concentration (0.1 OD) [6, 13]: <10 ng/mL; Sensitivity Limit, Low dye concentration (0.01 OD) [6, 13]: >10 ng/mL
COc1ccc2c(c1)N(C)C(c1ccccc1)=C/C2=C\c1nc2c(ccc[n+]2C)o1.[I-] [Compound 21] | 60 | 420 | 50 | 50 |  | 120 |  |  | Sensitivity Limit, High dye concentration (0.1 OD) (double-stranded DNA [2]; [7]): <10 ng/mL; Sensitivity Limit, Low dye concentration (0.01 OD) (double-stranded DNA [2]; [7]): 0.2 ng/mL
CCN(CC)Cc1ccc(C2=C/C(=C\c3nc4c(ccc[n+]4C)o3)c3ccccc3N2C)cc1.[I-] [Compound 22] | 30 | 830 | 50 | 7 | 60 | 120 | 10 | 1.0 | Preferential fluorescent staining of double-stranded DNA in the presence of single-stranded DNA and RNA (double-stranded DNA [4]): preferential fluorescent staining of double-stranded DNA; also recorded: detected preferentially
CCN(CC)Cc1ccc(C2=C/C(=C\c3nc4c(ccc[n+]4C)o3)c3cc(OC)ccc3N2C)cc1.[I-] [Compound 23] | 60 | 830 | 100 | 5 | 240 | 120 | <10 | 0.2 | Sensitivity Limit, High dye concentration (0.1 OD) [5, 13]: 200 ng/mL; Sensitivity Limit, Low dye concentration (0.01 OD) [5, 13]: 2.5 ng/mL; Sensitivity Limit, High dye concentration (0.1 OD) [6, 13]: <10 ng/mL; Sensitivity Limit, Low dye concentration (0.01 OD) [6, 13]: 1.0 ng/mL
CC[N+](C)(CC)Cc1ccc(C2=C/C(=C\c3nc4c(ccc[n+]4C)o3)c3ccccc3N2C)cc1 [Compound 24] | 30 | 420 | 50 | 5 | 120 | 60 | 10 | 5.0 | Preferential fluorescent staining of double-stranded DNA in the presence of single-stranded DNA and RNA (double-stranded DNA [4]): detected preferentially
CCCCC1=C/C(=C\c2nc3c(cc(Br)c[n+]3C)s2)c2ccccc2N1c1ccccc1.[I-] [Compound 44] |  |  |  |  |  |  |  |  | Sensitivity limit for bovine serum albumin (bovine serum albumin): about 100 ng/mL
CN1C(c2ccccc2)=C/C(=C\C=C\c2nc3c(ccc[n+]3C)o2)c2ccccc21.[I-] [Compound 51] |  |  |  |  |  |  |  |  | Sensitivity limit for bovine serum albumin (bovine serum albumin): about 100 ng/mL
CN1C=C/C(=C\C(=C\c2sc3ccccc3[n+]2C)c2ccccc2)c2ccccc21 [Compound 60] |  |  |  |  |  |  |  |  | Emission wavelength (DNA): 659 nm; Excitation wavelength (DNA): 642 nm
